Experimental data: US11590129B2, “Combination therapy with an antitumor alkaloid” (PHARMA MAR, S.A., priority 2010, dated 2023)

Key:
[1] = tested on: SK-MEL-2 human melanoma cell line; assay: cells; settings: Homo sapiens, SK-MEL-2, 72 h
Summary of the method: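 SK-MEL-2 melanoma cells (5,000/well) grown 24 h drug-free, then exposed 72 h to vehicle or test compounds. Viability by MTT reduction (8 h, 37 °C), formazan dissolved in DMSO; results expressed as percentage of control cell growth.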

[2] = tested on: JURKAT human leukemia cell line; assay: cells; settings: Homo sapiens, Jurkat, 72 h
Description: (§1) Additional serial dilutions were prepared in serum-free culture medium to achieve a final 4× concentration. Aliquots of 50 μL of each diluted compound were added per well.
(§2) JURKAT and MOLT-4 were the human leukemia cell lines selected for this assay, which were obtained from the American Type Culture Collection (ATCC).
(§3) Briefly, cells were seeded in 96 well microtiter plates at a density of 50000 cells per well in 150 μL of culture medium and incubated for 4-6 hours in drug-free medium before treatment with vehicle alone or test compounds for 72 hours.
(§4) After incubation, the cytotoxic effect was evaluated using a MTT reduction assay. 50 μL of MTT solution (1 mg/mL) were added to the wells and incubated for 15-17 hours at 37° C. until formazan crystals were formed. After gently removing the culture medium, DMSO was added to dissolve the insoluble purple formazan product into a colored solution. […] Results were expressed as percentage of control cell growth. The EC50 values (half-maximal effective concentration) used for the combination studies were calculated using Prism v5.02 software (GraphPad). EC50 was expressed as molar concentration and represented the mean of at least three independent assays.
(§5) b. In a second set of experiments, concentration-response curves for the agents tested, both alone and in two-drug combination, were performed, using the same methodology described in the previous paragraph.
(§6) Using these starting concentrations, constant serial dilutions were performed to generate the concentration-response curves for each set of drugs, alone and in combination.
(§7) Based on this equation, the term “combination index” (CI) is used as a quantitative measure of the degree of drug interactions. […] CI values were calculated by solving the equation for different values of fa (i.e., for different degrees of cell groth inhibition).
(§8) Data were analyzed using CalcuSyn software (Biosoft, Cambridge, UK). For statistical analysis and graphs Prism software (GraphPad, San Diego, USA) was used. All the results represent the mean of at least three independent experiments.

[3] = tested on: MOLT-4 human leukemia cell line; assay: cells; settings: Homo sapiens, MOLT-4, 72 h
Description: as §1, §2, §3, §4, §5, §6, §7, §8

SW1990 tumors = assay: Human pancreatic tumor xenografts (SW1990) in athymic nude mice, tumor volume % T/C; assay type: in vivo
Description: Female athymic nude mice (Harlan Laboratories Models, S.L. (Barcelona, Spain) were utilized for all experiments. Animals were housed in individually ventilated cages, up to ten per cage in a 12-hour light-dark cycle at 21-23° C. and 40-60% humidity. The mice were allowed free access to irradiated standard rodent diet and sterilized water. Animals were acclimated for at least 5 days prior to tumor implantation with a tumor cell suspension.
Each animal was subcutaneously implanted on the right flank, using 26G needle and a 1 cc syringe, with 5×10^6 SW1990 cells, from in vitro passage 12, in 0.05 mL suspension of 50% Matrigel and 50% serum free medium, without antibiotics.
PM01183 was provided in the form of vials of lyophilized PM01183 cake which was reconstituted with water for infusion to a concentration of 0.2 mg/mL. The PM01183 stock solution was further diluted in 5% glucose solution for injection to the dosing formulation concentrations.
Dose level groups were administered either as single agents or in combination.
Comparison of the median tumor volume in the treatment groups (T) to the median tumor volume in the control group (T/C×100%) was used for evaluation of the antitumor efficacy.

[4] = PM01183 0.045 mg/kg iv days 0,7,14
[5] = PM01183 0.09 mg/kg iv days 0,7,14
[6] = PM01183 0.135 mg/kg iv days 0,7,14
[7] = PM01183 0.18 mg/kg iv days 0,7,14

## COc1ccc2[nH]c3c(c2c1)CCN[C@]31CS[C@@H]2c3c(OC(C)=O)c(C)c4c(c3[C@H](COC1=O)N1[C@@H]2[C@H]2c3c(cc(C)c(OC)c3O)C[C@@H]([C@@H]1O)N2C)OCO4 [PM01183]
[1]
  IC50: 2 nM
[2]
  EC50: 1.55 nM
[3]
  EC50: 0.857 nM
SW1990 tumors; [4]
  % T/C on day 0: 100.2%
  % T/C on day 3: 83.6%
  % T/C on day 6: 82.8%
  % T/C on day 8: 93.3%
  % T/C on day 10: 82.9%
  % T/C on day 13: 88.1%
  % T/C on day 15: 92.6%
  % T/C on day 17: 86.5%
  % T/C on day 20: 85.1%
  % T/C on day 22: 84.5%
  % T/C on day 24: 85.8%
  % T/C on day 28: 85.4%
SW1990 tumors; [5]
  % T/C on day 0: 101.1%
  % T/C on day 3: 81.5%
  % T/C on day 6: 72.8%
  % T/C on day 8: 68.7%
  % T/C on day 10: 68.4%
  % T/C on day 13: 74.4%
  % T/C on day 15: 74.7%
  % T/C on day 17: 80.7%
  % T/C on day 20: 71.9%
  % T/C on day 22: 75.4%
  % T/C on day 24: 77.3%
  % T/C on day 28: 63.9%
SW1990 tumors; [6]
  % T/C on day 0: 99.6%
  % T/C on day 3: 81.3%
  % T/C on day 6: 71.0%
  % T/C on day 8: 73.1%
  % T/C on day 10: 65.6%
  % T/C on day 13: 63.1%
  % T/C on day 15: 56.3%
  % T/C on day 17: 56.7%
  % T/C on day 20: 56.9%
  % T/C on day 22: 56.5%
  % T/C on day 24: 53.0%
  % T/C on day 28: 51.7%
SW1990 tumors; [7]
  % T/C on day 0: 100.0%
  % T/C on day 3: 74.3%
  % T/C on day 6: 61.3%
  % T/C on day 8: 59.4%
  % T/C on day 10: 56.7%
  % T/C on day 13: 56.1%
  % T/C on day 15: 53.2%
  % T/C on day 17: 47.8%
  % T/C on day 20: 44.2%
  % T/C on day 22: 45.3%
  % T/C on day 24: 44.8%
  % T/C on day 28: 38.9%
